Assay results from patent US11236129B2, “IL-17A binding peptides and medical uses thereof” (Dompe' Farmaceutici S.P.A., priority 2018, dated 2022).
Like-named read-outs stand apart in the source and are kept apart here. Residues, ends and D or L forms follow the SMILES beside them.

Experiments:
[1] = test system: human corneal epithelial cells (hCEPIC); test: Permeability test across stratified human corneal epithelial cells; type: in vitro ADME; settings: for Permeability (Papp): 50 μM, stratified human corneal epithelial cells
Procedure: (§1) The objective of this study was to evaluate the apparent permeability coefficient (Papp) value of the peptides across stratified human corneal epithelial cells. All peptides were tested at 50 μM in duplicate.
(§2) In particular, human corneal epithelial cells (hCEPIC) were stratified on Transwell cell culture inserts (Corning, N.Y., USA). The permeation experiments were performed taking samples from receiver chambers at 5, 30, 60 minutes time points and from donor chambers at the same time points. Each aliquot collected was analyzed by HPLC instrument (Knauer) equipped with C18 Vertex Plus Column (Knauer) thermostatically controlled at 40° C. The rate (apparent permeability coefficient, Papp) of the study compounds was calculated and compared to the Papp values of the low and high permeability markers, 6-carboxyfluorescein and Rhodamine B, respectively.
(§3) The apparent permeability coefficient (Papp) was calculated according to Equation: Papp=(I/A*C0)(dM/dt)
(§4) where dM/dt is the flux (nanomoles per second) across the cell layers;
(§5) A (square centimeters) is the exposed surface area of the insert membrane;
(§6) C0 is the initial drug concentration (micromolar) in the donor compartment at t=0 (Xiang et al., Drug Metab Dispos. 2009 May; 37(5):992-8.

[2] = target: IL-17RA/IL17RC dimerization induced by IL-17A (Homo sapiens, UniProt Q16552); test: IL-17RA/IL17RC dimerization assay in response to IL-17A (PathHunter Cytokine Receptor Assay); type: cell-based; settings: IL-17A at EC80; read-out: IC50 in IL-17RA/IL7RC dimerization assay
Summary of the method: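 Receptor dimerization was read as chemiluminescence from complemented β-galactosidase after IL-17A at EC80 concentration for 6–16 h at 37 °C. Peptides were added 60 min before agonist, at 37 °C or room temperature, with 1% vehicle. Percent inhibition used the EC80-stimulated and vehicle wells as references.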

[3] = Isoelectric point, log D and log P (SiriusT3); type: physicochemical; settings: for IP (isoelectric point): 25±1° C., 0.15 M KCl
[4] = type: physicochemical; settings: pH 7.8
Summary of the method: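 Peptides dissolved in phosphate buffer pH 7.8 as 10 mM stocks (more dilute for less soluble ones) and stored at 25 °C. Content measured by reversed-phase UHPLC (C18, 0.5% formic acid water/acetonitrile gradient, DAD 220-400 nm, ESI-MS ion trap) after 1:100 dilution to 100 μM, against 100 μM standards, at T0, 3 days and 1 week.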

[5] = Permeability test across stratified human corneal epithelial cells; type: in vitro ADME; settings: Permeability (Papp)
Procedure: as §1, §2, §3, §4, §5, §6

[6] = octanol/ISA water, read-out: logP
[7] = pH 7.4, pH 7.4, octanol/ISA water, read-out: Log D (7.4)

IL-17RA/IL17RC dimerization induced by IL-17A, sequence (Q16552 24-155): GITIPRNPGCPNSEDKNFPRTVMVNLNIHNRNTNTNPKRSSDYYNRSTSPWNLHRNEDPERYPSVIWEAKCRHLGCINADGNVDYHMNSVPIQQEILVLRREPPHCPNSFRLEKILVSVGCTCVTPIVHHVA

SMILES | Permeability (Papp) [1] | IC50 [2] | IP (isoelectric point) [3] | logP ([3]; logP) | logD ([3]; pH 7.4, Log D (7.4)) | solubility [4] | Papp [5] | logP [3, 6] | logD [3, 7] | permeability compared to high permeability standard Rhodamine B (in words) [1]
O=C(O)c1ccc2c(c1)C1(OC2=O)c2ccc(O)cc2Oc2cc(O)ccc21 [6-carboxyfluorescein, reference compound] | 0.61±0.33 10^−6 cm/sec |  |  |  |  |  |  |  |  | 
CCN(CC)c1ccc2c(-c3ccccc3C(=O)O)c3ccc(=[N+](CC)CC)cc-3oc2c1.[Cl-] [Rhodamine B, reference compound] | 51.26±5.44 10^−6 cm/sec |  |  |  |  |  |  |  |  | 
CC[C@H](C)[C@H](NC(C)=O)C(=O)N[C@@H](Cc1c[nH]cn1)C(=O)N[C@H](C(=O)N[C@H](C(=O)N[C@H](C(=O)N1CCC[C@H]1C(=O)N[C@@H](C)C(=O)N[C@@H](CC(=O)O)C(=O)N[C@@H](CC(C)C)C(=O)N[C@@H](Cc1c[nH]c2ccccc12)C(=O)N[C@@H](CC(=O)O)C(=O)N[C@@H](Cc1c[nH]c2ccccc12)C(=O)N[C@H](C(=O)N[C@@H](CCC(=O)O)C(=O)N[C@@H](CCCCN)C(N)=O)[C@@H](C)CC)[C@@H](C)CC)[C@@H](C)O)C(C)C [SEQ ID NO: 11] (Ac-IHVTIPADLWDWIEK-NH2) |  | < 400 nM | 4.25 | 1.05 | -2.92 | > 10 mM | 28 ×10⁻⁶ cm/s |  |  | 
CC[C@H](C)[C@H](NC(C)=O)C(=O)N[C@@H](Cc1c[nH]cn1)C(=O)N[C@H](C(=O)N[C@H](C(=O)N[C@H](C(=O)N1CCC[C@H]1C(=O)N[C@@H](C)C(=O)N[C@@H](CC(=O)O)C(=O)N[C@@H](CC(C)C)C(=O)N[C@@H](Cc1c[nH]c2ccccc12)C(=O)N[C@@H](CC(=O)O)C(=O)N[C@@H](Cc1c[nH]c2ccccc12)C(=O)N[C@H](C(=O)N[C@@H](CCCNC(=N)N)C(=O)N[C@@H](CCCNC(=N)N)C(N)=O)C(C)C)[C@@H](C)CC)[C@@H](C)O)C(C)C [SEQ ID NO: 14] (Ac-IHVTIPADLWDWVRR-NH2) |  | < 400 nM | 8.99 | -5.4 | -2.8 | > 10 mM | 28.9 ×10⁻⁶ cm/s |  |  | 
CC[C@H](C)[C@H](NC(=O)[C@H](Cc1c[nH]c2ccccc12)NC(=O)[C@H](CCC(=O)O)NC(=O)[C@H](Cc1ccc(O)cc1)NC(=O)[C@H](CC(C)C)NC(=O)[C@H](CC(=O)O)NC(=O)[C@H](C)NC(=O)[C@@H]1CCCN1C(=O)[C@@H](NC(=O)[C@@H](NC(=O)[C@@H](NC(=O)[C@H](CCSC)NC(=O)[C@@H](NC(=O)CNC(=O)[C@H](CC(=O)O)NC(=O)CNC(=O)[C@@H]1CCCN1C(=O)[C@@H](NC(C)=O)C(C)C)C(C)C)C(C)C)[C@@H](C)O)[C@@H](C)CC)C(=O)N[C@@H](CCC(=O)O)C(=O)N[C@@H](CCC(=O)O)C(N)=O [SEQ ID NO: 39] (Ac-VPGDGVMVTIPADLYEWIEE-NH2) |  | < 200 nM | 4.2 |  |  | > 10 mM |  | -5.36 | -2.86 | 
CC[C@H](C)[C@H](NC(=O)[C@H](Cc1c[nH]c2ccccc12)NC(=O)[C@H](CCC(=O)O)NC(=O)[C@H](Cc1ccc(O)cc1)NC(=O)[C@H](CC(C)C)NC(=O)[C@H](CC(=O)O)NC(=O)[C@H](C)NC(=O)[C@@H]1CCCN1C(=O)[C@@H](NC(=O)[C@@H](NC(=O)[C@@H](NC(=O)[C@H](CCSC)NC(=O)[C@@H](NC(C)=O)C(C)C)C(C)C)[C@@H](C)O)[C@@H](C)CC)C(=O)N[C@@H](CCC(=O)O)C(=O)N[C@@H](CCC(=O)O)C(=O)N[C@H](C(=O)N1CCC[C@H]1C(=O)NCC(=O)N[C@@H](CC(=O)O)C(=O)NCC(N)=O)C(C)C [SEQ ID NO: 40] (Ac-VMVTIPADLYEWIEEVPGDG-NH2) |  | < 200 nM | 4.21 |  |  | > 10 mM |  | -4.93 | -3.5 | 
CC(=O)N[C@@H](CC(=O)O)C(=O)N[C@@H](CC(C)C)C(=O)N[C@@H](CO)C(=O)N[C@@H](C)C(=O)N[C@H](C(=O)N[C@H]1CSSC[C@@H](C(=O)N[C@@H](Cc2c[nH]cn2)C(N)=O)NC(=O)[C@H](CCC(=O)O)NC(=O)[C@@H]2CCCN2C(=O)[C@H](CC(=O)O)NC(=O)[C@H](Cc2c[nH]c3ccccc23)NC(=O)[C@@H]2CCCN2C(=O)[C@H](Cc2ccccc2)NC(=O)[C@H](C)NC(=O)[C@H](Cc2c[nH]c3ccccc23)NC1=O)C(C)C [SEQ ID NO: 41] |  | < 1000 nM | 3.54 |  |  | > 10 mM |  | 1.24 | -1.94 | 
CC[C@H](C)[C@H](NC(=O)[C@@H](NC(=O)[C@@H](NC(=O)[C@H](Cc1c[nH]cn1)NC(=O)[C@@H](NC(C)=O)C(C)C)C(C)C)[C@@H](C)O)C(=O)N1CCC[C@H]1C(=O)N[C@@H](C)C(=O)N[C@@H](CCC(=O)O)C(=O)N[C@@H](CC(C)C)C(=O)N[C@@H](Cc1c[nH]c2ccccc12)C(=O)N[C@@H](CCC(=O)O)C(=O)N[C@@H](Cc1c[nH]c2ccccc12)C(=O)N[C@H](C(=O)N[C@@H](CCCNC(=N)N)C(=O)N[C@@H](CCCNC(=N)N)C(N)=O)C(C)C [SEQ ID NO: 111] (Ac-VHVTIPAELWEWVRR-NH2) |  | < 500 nM | 8.99 |  |  | < 0.05 mM | 83.7 ×10⁻⁶ cm/s | -0.38 | -0.93 | higher permeability compared to Rhodamine B
CC[C@H](C)[C@H](NC(=O)[C@@H](NC(=O)[C@H](Cc1ccccc1)NC(=O)[C@H](Cc1c[nH]cn1)NC(=O)[C@@H](NC(C)=O)C(C)C)[C@@H](C)O)C(=O)N1CCC[C@H]1C(=O)N[C@@H](C)C(=O)N[C@@H](CC(=O)O)C(=O)N[C@@H](CC(C)C)C(=O)N[C@@H](Cc1c[nH]c2ccccc12)C(=O)N[C@@H](CCC(=O)O)C(=O)N[C@@H](Cc1c[nH]c2ccccc12)C(=O)N[C@H](C(=O)N[C@@H](CCCNC(=N)N)C(=O)N[C@@H](CCCNC(=N)N)C(N)=O)C(C)C [SEQ ID NO: 112] (Ac-VHFTIPADLWEWVRR-NH2) |  | < 500 nM | 8.99 |  |  | < 0.05 mM |  | -4.76 |  | 
CC[C@H](C)[C@H](NC(=O)[C@H](CCC(N)=O)NC(=O)[C@@H](NC(=O)[C@H](Cc1c[nH]cn1)NC(=O)[C@@H](NC(C)=O)C(C)C)C(C)C)C(=O)N1CCC[C@H]1C(=O)N[C@@H](C)C(=O)N[C@@H](CC(=O)O)C(=O)N[C@@H](CC(C)C)C(=O)N[C@@H](Cc1c[nH]c2ccccc12)C(=O)N[C@@H](CCC(=O)O)C(=O)N[C@@H](Cc1c[nH]c2ccccc12)C(=O)N[C@H](C(=O)N[C@@H](CCCNC(=N)N)C(=O)N[C@@H](CCCNC(=N)N)C(N)=O)C(C)C [SEQ ID NO: 113] (Ac-VHVQIPADLWEWVRR-NH2) |  | < 500 nM | 8.99 |  |  | < 0.05 mM | 76.8 ×10⁻⁶ cm/s | -0.13 | -3.47 | higher permeability compared to Rhodamine B
CC(=O)N[C@H](C(=O)N[C@@H](Cc1c[nH]cn1)C(=O)N[C@H](C(=O)N[C@H](C(=O)N[C@@H](Cc1ccccc1)C(=O)N1CCC[C@H]1C(=O)N[C@@H](C)C(=O)N[C@@H](CC(=O)O)C(=O)N[C@@H](CC(C)C)C(=O)N[C@@H](Cc1c[nH]c2ccccc12)C(=O)N[C@@H](CCC(=O)O)C(=O)N[C@@H](Cc1c[nH]c2ccccc12)C(=O)N[C@H](C(=O)N[C@@H](CCCNC(=N)N)C(=O)N[C@@H](CCCNC(=N)N)C(N)=O)C(C)C)[C@@H](C)O)C(C)C)C(C)C [SEQ ID NO: 114] (Ac-VHVTFPADLWEWVRR-NH2) |  | < 500 nM | 8.99 |  |  | < 0.05 mM |  | -0.21 | -3.59 | 
CC[C@H](C)[C@H](NC(=O)[C@@H](NC(=O)[C@@H](NC(=O)[C@H](Cc1c[nH]cn1)NC(=O)[C@@H](NC(C)=O)C(C)C)C(C)C)[C@@H](C)O)C(=O)N1CCC[C@H]1C(=O)N[C@@H](C)C(=O)N[C@@H](CC(=O)O)C(=O)N[C@@H](CC(C)C)C(=O)N[C@@H](Cc1c[nH]c2ccccc12)C(=O)N[C@@H](CCC(=O)O)C(=O)N[C@@H](Cc1c[nH]c2ccccc12)C(=O)N[C@@H](Cc1ccccc1)C(=O)N[C@@H](CCCNC(=N)N)C(=O)N[C@@H](CCCNC(=N)N)C(N)=O [SEQ ID NO: 121] (Ac-VHVTIPADLWEWFRR-NH2) |  | < 500 nM | 8.99 |  |  | < 0.05 mM | 47.1 ×10⁻⁶ cm/s | -0.51 | -1.47 | 
